From patent US10087165B2, “Fluoroquinolones and use thereof to treat bacterial infections” (UNIVERSITÉ PIERRE ET MARIE CURIE—PARIS 6 (UPMC), priority 2014, dated 2018)
In brackets after ≈: the same amount, converted by molar mass. Read-outs that look alike come from different tables or passages of the source.

Key:
M. tuberculosis H37Rv [1] = assay: microbe, parasite or virus in culture; assay type: cell-based; parameters: MIC against wild-type M. tuberculosis strain (below moxifloxacin MIC): unit not given beside the values; details: for MIC: Mycobacterium tuberculosis
[2] = target: T1, M. tuberculosis DNA gyrase (Mycobacterium tuberculosis, UniProt P9WG45+P9WG47); parameters: made in house; details: Table 2; published previously (Poissy et al. 2010); cited from earlier work
T1 sequence (P9WG47 whole entry): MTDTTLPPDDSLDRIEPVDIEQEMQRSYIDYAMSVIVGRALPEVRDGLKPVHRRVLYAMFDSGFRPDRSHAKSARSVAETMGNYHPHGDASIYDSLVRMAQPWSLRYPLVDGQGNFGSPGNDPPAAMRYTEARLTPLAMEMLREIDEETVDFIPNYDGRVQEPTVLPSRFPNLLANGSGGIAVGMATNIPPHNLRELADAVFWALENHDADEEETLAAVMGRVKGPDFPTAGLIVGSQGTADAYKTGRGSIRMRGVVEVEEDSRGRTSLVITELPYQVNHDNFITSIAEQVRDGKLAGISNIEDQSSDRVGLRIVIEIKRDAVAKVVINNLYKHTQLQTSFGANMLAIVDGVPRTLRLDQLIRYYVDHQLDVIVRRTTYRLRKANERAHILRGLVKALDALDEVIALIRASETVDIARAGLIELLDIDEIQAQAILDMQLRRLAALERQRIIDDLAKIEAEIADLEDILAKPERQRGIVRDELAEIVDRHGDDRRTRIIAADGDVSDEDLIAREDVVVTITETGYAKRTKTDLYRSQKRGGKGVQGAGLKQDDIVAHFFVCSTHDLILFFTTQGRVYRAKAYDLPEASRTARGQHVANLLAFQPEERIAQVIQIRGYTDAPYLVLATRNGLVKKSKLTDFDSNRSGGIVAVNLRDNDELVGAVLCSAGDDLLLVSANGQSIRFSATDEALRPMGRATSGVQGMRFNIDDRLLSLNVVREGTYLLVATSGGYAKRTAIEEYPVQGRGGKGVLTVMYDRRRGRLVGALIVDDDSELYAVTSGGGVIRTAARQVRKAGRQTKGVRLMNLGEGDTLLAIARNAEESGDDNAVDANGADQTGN
T1 sequence (P9WG45 whole entry): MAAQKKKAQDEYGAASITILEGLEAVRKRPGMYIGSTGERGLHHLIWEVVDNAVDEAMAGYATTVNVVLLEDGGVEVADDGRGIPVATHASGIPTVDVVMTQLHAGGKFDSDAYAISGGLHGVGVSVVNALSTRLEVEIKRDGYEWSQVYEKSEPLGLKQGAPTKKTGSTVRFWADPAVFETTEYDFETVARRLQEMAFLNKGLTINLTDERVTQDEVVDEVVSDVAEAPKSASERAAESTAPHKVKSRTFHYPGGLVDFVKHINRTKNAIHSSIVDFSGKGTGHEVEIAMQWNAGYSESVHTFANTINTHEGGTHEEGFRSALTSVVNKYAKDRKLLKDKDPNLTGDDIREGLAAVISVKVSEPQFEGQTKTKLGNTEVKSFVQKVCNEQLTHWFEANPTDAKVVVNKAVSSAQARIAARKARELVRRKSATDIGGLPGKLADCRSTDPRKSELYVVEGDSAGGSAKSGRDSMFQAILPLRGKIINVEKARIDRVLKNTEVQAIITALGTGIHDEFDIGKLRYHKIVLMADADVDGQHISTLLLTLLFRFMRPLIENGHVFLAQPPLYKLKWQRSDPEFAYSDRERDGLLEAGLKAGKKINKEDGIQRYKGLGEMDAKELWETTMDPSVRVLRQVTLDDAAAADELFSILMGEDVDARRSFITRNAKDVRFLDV

M. tuberculosis H37Rv [3] = details: Table 2, published previously (Poissy et al. 2010); cited from earlier work
[4] = tested on: M. tuberculosis H37Rv strain; assay: Minimal effective dosage in the murine TB model; assay type: in vivo, Balb/C/J female mice; details: 25 mg/kg/j, Gavage
Method: Four-week-old Balb/C/J female mice were infected intravenously with 10^6 CFU of M. tuberculosis H37Rv strain. On the day following the infection (D1), 10 mice were sacrificed to determine the exact baseline values of spleen weight and CFU counts in the lungs. The remaining mice were allocated to the following treatment groups: an untreated negative control group for survival monitoring, a positive control group treated for 1 month with isoniazid (INH) 25 mg/kg/d, […] test groups were treated with Quin18 and Quin19 at increasing dosages (25 mg/kg/d; 50 mg/kg/d; 100 mg/kg/d; 150 mg/kg/d) given by oral gavage, and two additional test groups were treated intravenously with Quin18 25 mg/kg/d and 100 mg/kg/d. All the groups contained 10 mice and were treated from D1 to D28, 5 days a week. The parameters used for assessing the severity of infection and the effectiveness of treatments were survival rate, spleen weight, gross lung lesions and CFU counts in the lungs.
The minimal effective dosage was defined as the minimal dosage able to prevent mortality of the mice, spleen enlargement and the occurrence of gross lung lesions. CFU counts were considered to be a more precise way of determining the dose-ranging efficacy of Quin18 and Quin19.
Survival rates between groups were plotted on a Kaplan-Meier curve and compared using the log-rank test.

[5] = target: T1, M. tuberculosis DNA gyrase; assay: biochemical
[6] = H37Rv, Table 2, read-out: MIC (M. tuberculosis) WT
[7] = H37RV, Table 3, read-out: MIC M. tuberculosis H37Rv

Row | SMILES | MIC (M. tuberculosis H37Rv [1]; [6]) | MIC (M. tuberculosis H37Rv [1]; [7]) | IC50 [5] | other results
1 | O=C(O)c1cn(C2CC2)c2cc(N3CCNCC3)c(F)cc2c1=O [Ciprofloxacin, ciprofloxacin, reference compound] | 1.5 µM (≈ 0.497 µg/mL) |  |  | 
2 | CCCCCCCN1CCN(c2c(F)cc3c(=O)c(C(=O)O)cn(C4CC4)c3c2OC)CC1 [Compound 15, 1-cyclopropyl-6-fluoro-7-(4-heptylpiperazin-1-yl)-8-methoxy-4-oxo-1,4-dihydroquinoline-3-carboxylic acid] |  | 2.2 µM (≈ 1.01 µg/mL) |  | 
3 | CCCCCCCCCN1CCN(c2c(F)cc3c(=O)c(C(=O)O)cn(C4CC4)c3c2OC)CC1 [Compound 17, 1-cyclopropyl-6-fluoro-8-methoxy-7-(4-nonylpiperazin-1-yl)-4-oxo-1,4-dihydroquinoline-3-carboxylic acid] |  | 0.12 µM (≈ 0.0585 µg/mL) |  | 
4 | CCCCCCCCCCCN1CCN(c2c(F)cc3c(=O)c(C(=O)O)cn(C4CC4)c3c2OC)CC1 [Compound 19, 1-cyclopropyl-6-fluoro-8-methoxy-4-oxo-7-(4-undecylpiperazin-1-yl)-1,4-dihydroquinoline-3-carboxylic acid] |  | 0.25 µM (≈ 0.129 µg/mL) |  | 
5 | CCCCCCCCCCCCN1CCN(c2c(F)cc3c(=O)c(C(=O)O)cn(C4CC4)c3c2OC)CC1 [Compound 20, 1-cyclopropyl-7-(4-dodecylpiperazin-1-yl)-6-fluoro-8-methoxy-4-oxo-1,4-dihydroquinoline-3-carboxylic acid] |  | 0.47 µM (≈ 0.249 µg/mL) |  | 
6 | COc1c(N2CCNC(C)C2)c(F)cc2c(=O)c(C(=O)O)cn(C3CC3)c12 (centres unmarked) [Gatifloxacin, gatifloxacin] |  |  |  | IC50 [2]: 6.8 µM; MIC (M. tuberculosis) WT (M. tuberculosis H37Rv [3]): 0.32 µM (≈ 0.12 µg/mL)
7 | NNC(=O)c1ccncc1 [Isoniazid, isoniazid, reference compound] |  |  |  | Spleen weight [4]: 237 ± 73.8 mg; Survival: No. death ([4]; D1 to D28, 5 days a week, 10 mice): 0
8 | COc1c(N2C[C@@H]3CCCN[C@@H]3C2)c(F)cc2c(=O)c(C(=O)O)cn(C3CC3)c12 [Moxifloxacin, moxifloxacin, reference compound] |  | 1.2 µM (≈ 0.482 µg/mL) |  | MIC against wild-type M. tuberculosis strain (below moxifloxacin MIC) (M. tuberculosis H37Rv [1]; Table 3): 1.2
9 | CCCCCCCCCCN1CCN(c2cc3c(cc2F)c(=O)c(C(=O)O)cn3C2CC2)CC1 [Quin 9, 1-cyclopropyl-7-(4-decylpiperazin-1-yl)-6-fluoro-4-oxo-1,4-dihydroquinoline-3-carboxylic acid] | 0.5 µM (≈ 0.236 µg/mL) |  | 120 µM | 
10 | CCCCCCCCCCCCCCCCN1CCN(c2cc3c(cc2F)c(=O)c(C(=O)O)cn3C2CC2)CC1 [Quin 10, 1-cyclopropyl-6-fluoro-7-(4-hexadecylpiperazin-1-yl)-4-oxo-1,4-dihydroquinoline-3-carboxylic acid] | 57 µM (≈ 31.7 µg/mL) |  | 105 µM | 
11 | CCCCCN1CCN(c2cc3c(cc2F)c(=O)c(C(=O)O)cn3C2CC2)CC1 [Quin 15, 1-cyclopropyl-6-fluoro-4-oxo-7-(4-pentylpiperazin-1-yl)-1,4-dihydroquinoline-3-carboxylic acid] | 6 µM (≈ 2.41 µg/mL) |  | 76 µM | 
12 | CCCCCCCCN1CCN(c2cc3c(cc2F)c(=O)c(C(=O)O)cn3C2CC2)CC1 [Quin 16, 1-cyclopropyl-6-fluoro-7-(4-octylpiperazin-1-yl)-4-oxo-1,4-dihydroquinoline-3-carboxylic acid] | ≤ 0.2 µM |  | 135 µM | 
13 | CCCCCN1CCN(c2c(F)cc3c(=O)c(C(=O)O)cn(C4CC4)c3c2OC)CC1 [Quin 17, 1-cyclopropyl-6-fluoro-8-methoxy-4-oxo-7-(4-pentylpiperazin-1-yl)-1,4-dihydroquinoline-3-carboxylic acid] | 3.5 µM (≈ 1.51 µg/mL) |  | 60 µM | 
14 | CCCCCCCCCCCCCCCCN1CCN(c2c(F)cc3c(=O)c(C(=O)O)cn(C4CC4)c3c2OC)CC1 [Quin 20, 1-cyclopropyl-6-fluoro-7-(4-hexadecylpiperazin-1-yl)-8-methoxy-4-oxo-1,4-dihydroquinoline-3-carboxylic acid] | 0.2 µM (≈ 0.117 µg/mL) |  | 121 µM | 
